Results from patent publication US20250366503A1, “NOVEL GLUCOPYRANOSIDE COMPOSITIONS FOR SWEETNESS ENHANCEMENT” (International Flavors & Fragrances Inc., priority 2022, published 2025).

Test: Sweetness enhancement of sucrose by isolated compounds (flavor profile)
Details: for Flavor Profile: 6% sucrose in water; for Enhancement of the sweetness of sweetness modifiers: general statement; for Sweetness and sugary mouthfeel enhancement: summary statement
Procedure: A sucrose solution (6%) was prepared in water and used as the base solution. Sucrose solutions of lipedoside B-IIIb, ligurobustoside E, ligurobustoside C, CPD5, ligurobustoside K ligurobustoside I and CPD6 were each prepared at 0.1-2 ppm. Flavor profiles of the sucrose solutions with added lipedoside B-IIIb, ligurobustoside E, ligurobustoside C, CPD5, ligurobustoside K and CPD6 are reported in the following: […]

Compound	Flavor Profile (compound 2 ppm)	Enhancement of the sweetness of sweetness modifiers	Sweetness and sugary mouthfeel enhancement	Flavor Profile (compound 0.1 ppm)	Flavor Profile (compound 1 ppm)
C=CC(C)(CCC=C(C)C)O[C@@H]1O[C@H](CO)[C@@H](OC(=O)/C=C/c2ccc(O)c(O)c2)[C@H](O[C@@H]2O[C@@H](C)[C@H](O)[C@@H](O)[C@H]2O)[C@H]1O (stereo partly drawn) [CPD5, (2R,3R,4R,5R,6S)-6-((3,7-dimethylocta-1,6-dien-3-yl)oxy)-5-hydroxy-2-(hydroxymethyl)-4-(((2S,3R,4R,5R,6S)-3,4,5-trihydroxy-6-methyltetrahydro-2H-pyran-2-yl)oxy)tetrahydro-2H-pyran-3-yl (E)-3-(3,4-dihydroxyphenyl)acrylate]	Moderate sweetness and mouthfeel enhancement	enhance the sweetness of sweetness modifiers without undesirable off-notes	–	–	–
C/C(=C\CO[C@@H]1O[C@H](CO)[C@@H](OC(=O)/C=C/c2ccc(O)cc2)[C@H](O[C@@H]2O[C@@H](C)[C@H](O)[C@@H](O)[C@H]2O)[C@H]1O)C/C=C\C(C)(C)O [ligurobustoside I]	Weak sweetness and mouthfeel enhancement	–	mild sweetness and sugary mouthfeel enhancement	–	–
CC(C)=CC(=O)/C=C(\C)CCO[C@@H]1O[C@H](CO)[C@@H](OC(=O)/C=C/c2ccc(O)cc2)[C@H](O[C@@H]2O[C@@H](C)[C@H](O)[C@@H](O)[C@H]2O)[C@H]1O [CPD6, (2R,3R,4R,5R,6R)-6-(((E)-3,7-dimethyl-5-oxoocta-3,6-dien-1-yl)oxy)-5-hydroxy-2-(hydroxymethyl)-4-(((2S,3R,4R,5R,6S)-3,4,5-trihydroxy-6-methyltetrahydro-2H-pyran-2-yl)oxy)tetrahydro-2H-pyran-3-yl (E)-3-(4-hydroxyphenyl)acrylate]	Weak lingering sweetness and mouthfeel enhancement	–	mild sweetness and sugary mouthfeel enhancement	–	–
CC(C)=CCC/C(C)=C/CO[C@@H]1O[C@H](CO)[C@@H](OC(=O)/C=C/c2ccc(O)cc2)[C@H](O[C@@H]2O[C@@H](C)[C@H](O)[C@@H](O)[C@H]2O)[C@H]1O [Ligurobustoside C, ligurobustoside C]	Some upfront sweetness and mouthfeel enhancement	enhance the sweetness of sweetness modifiers without undesirable off-notes	–	–	–
lipedoside B-IIIb	Strong upfront sweetness and sugary mouthfeel	enhance the sweetness of sweetness modifiers without undesirable off-notes	particularly strong sweetness and sugary mouthfeel enhancement	Slight sweetness enhancement, lingering sweetness	Sweetness enhancement, lingering sweetness
CC(C)=CCC/C(C)=C/CO[C@@H]1O[C@H](COC(=O)/C=C/c2ccc(O)cc2)[C@@H](O)[C@H](O[C@@H]2O[C@@H](C)[C@H](O)[C@@H](O)[C@H]2O)[C@H]1O [Ligurobustoside E, ligurobustoside E]	–	enhance the sweetness of sweetness modifiers without undesirable off-notes	particularly strong sweetness and sugary mouthfeel enhancement	Sweetness enhancement, lingering sweetness	Upfront sweetness, lingering sweetness
ligurobustoside K	Weak sweetness and mouthfeel enhancement	–	mild sweetness and sugary mouthfeel enhancement	–	–
